Experimental data taken from ChEMBL document CHEMBL1156950, “Synthesis and biological evaluation of 4-anilinoquinolines as potent inhibitors of epidermal growth factor receptor” (J Med Chem, 2010).
Calls of active or inactive are those of the source. The rule behind the calls is not given here.

Tests used:
[1] = target: Serine/threonine-protein kinase PAK 2 (Homo sapiens) (UniProt Q13177); assay: Inhibition of PAK2 at 10 uM assessed as residual activity by [33P]ATP radioactive filter binding assay relative to control
Chain of Serine/threonine-protein kinase PAK 2 (Homo sapiens) (Q13177 whole entry): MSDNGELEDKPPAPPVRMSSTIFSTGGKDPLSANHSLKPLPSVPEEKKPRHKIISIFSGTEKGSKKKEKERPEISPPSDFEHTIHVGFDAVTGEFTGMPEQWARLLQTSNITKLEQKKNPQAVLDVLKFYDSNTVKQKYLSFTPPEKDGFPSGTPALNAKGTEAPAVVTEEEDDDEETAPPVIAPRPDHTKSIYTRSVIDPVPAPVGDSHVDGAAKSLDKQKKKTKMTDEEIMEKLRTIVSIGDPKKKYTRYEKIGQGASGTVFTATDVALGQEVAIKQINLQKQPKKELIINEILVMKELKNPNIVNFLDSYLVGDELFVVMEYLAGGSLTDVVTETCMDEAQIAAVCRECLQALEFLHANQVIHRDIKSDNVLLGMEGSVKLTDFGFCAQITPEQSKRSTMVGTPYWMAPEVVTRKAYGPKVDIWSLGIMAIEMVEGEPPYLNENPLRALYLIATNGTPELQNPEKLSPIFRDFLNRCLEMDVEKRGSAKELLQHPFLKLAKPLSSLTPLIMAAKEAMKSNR

[2] = target: T1, Epidermal growth factor receptor (Homo sapiens, UniProt P00533); assay: Inhibition of 746-750 sequence deleted EGFR autophosphorylation in human PC9 cells after 24 hrs by immunoblotting; assay type: cell-based; settings: PC-9
T1 sequence (P00533 whole entry): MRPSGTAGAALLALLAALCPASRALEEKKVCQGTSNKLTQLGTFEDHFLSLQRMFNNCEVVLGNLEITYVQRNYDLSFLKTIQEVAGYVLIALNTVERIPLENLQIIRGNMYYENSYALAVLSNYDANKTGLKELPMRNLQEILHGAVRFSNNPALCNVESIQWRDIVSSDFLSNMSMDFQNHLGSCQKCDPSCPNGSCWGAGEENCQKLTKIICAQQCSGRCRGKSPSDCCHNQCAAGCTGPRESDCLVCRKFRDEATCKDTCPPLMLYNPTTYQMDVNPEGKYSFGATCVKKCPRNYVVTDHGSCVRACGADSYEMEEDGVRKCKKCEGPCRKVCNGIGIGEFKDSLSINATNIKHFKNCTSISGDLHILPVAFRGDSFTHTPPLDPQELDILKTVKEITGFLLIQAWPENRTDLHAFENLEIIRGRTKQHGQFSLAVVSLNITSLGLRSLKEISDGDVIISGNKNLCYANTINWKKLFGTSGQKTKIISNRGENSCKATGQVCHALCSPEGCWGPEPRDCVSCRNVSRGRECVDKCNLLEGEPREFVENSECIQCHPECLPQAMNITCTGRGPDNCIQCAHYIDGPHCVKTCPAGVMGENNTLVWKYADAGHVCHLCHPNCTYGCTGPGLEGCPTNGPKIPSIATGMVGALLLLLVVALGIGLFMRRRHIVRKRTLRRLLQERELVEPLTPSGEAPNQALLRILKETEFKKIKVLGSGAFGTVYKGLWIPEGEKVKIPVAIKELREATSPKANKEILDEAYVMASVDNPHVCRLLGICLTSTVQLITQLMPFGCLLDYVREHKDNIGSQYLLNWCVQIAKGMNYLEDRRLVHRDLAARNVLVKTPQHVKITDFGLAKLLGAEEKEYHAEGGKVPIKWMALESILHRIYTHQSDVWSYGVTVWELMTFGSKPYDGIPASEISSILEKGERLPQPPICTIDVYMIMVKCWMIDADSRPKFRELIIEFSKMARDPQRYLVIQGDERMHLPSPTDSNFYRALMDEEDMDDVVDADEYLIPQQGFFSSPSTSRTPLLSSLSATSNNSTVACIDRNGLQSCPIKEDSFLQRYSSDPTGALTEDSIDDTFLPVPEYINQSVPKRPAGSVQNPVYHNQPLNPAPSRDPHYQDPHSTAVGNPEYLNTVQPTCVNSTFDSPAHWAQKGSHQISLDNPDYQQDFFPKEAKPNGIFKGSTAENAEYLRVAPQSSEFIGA

[3] = target: Epidermal growth factor receptor (Homo sapiens, UniProt P00533, L858R/T790M); assay: Inhibition of EGFR Leu858Arg and Thr790Met mutant by HTRF assay; assay type: protein assay
Chain of Epidermal growth factor receptor (Homo sapiens, UniProt P00533, L858R/T790M) (P00533 25-1210 T790M/L858R limits assumed): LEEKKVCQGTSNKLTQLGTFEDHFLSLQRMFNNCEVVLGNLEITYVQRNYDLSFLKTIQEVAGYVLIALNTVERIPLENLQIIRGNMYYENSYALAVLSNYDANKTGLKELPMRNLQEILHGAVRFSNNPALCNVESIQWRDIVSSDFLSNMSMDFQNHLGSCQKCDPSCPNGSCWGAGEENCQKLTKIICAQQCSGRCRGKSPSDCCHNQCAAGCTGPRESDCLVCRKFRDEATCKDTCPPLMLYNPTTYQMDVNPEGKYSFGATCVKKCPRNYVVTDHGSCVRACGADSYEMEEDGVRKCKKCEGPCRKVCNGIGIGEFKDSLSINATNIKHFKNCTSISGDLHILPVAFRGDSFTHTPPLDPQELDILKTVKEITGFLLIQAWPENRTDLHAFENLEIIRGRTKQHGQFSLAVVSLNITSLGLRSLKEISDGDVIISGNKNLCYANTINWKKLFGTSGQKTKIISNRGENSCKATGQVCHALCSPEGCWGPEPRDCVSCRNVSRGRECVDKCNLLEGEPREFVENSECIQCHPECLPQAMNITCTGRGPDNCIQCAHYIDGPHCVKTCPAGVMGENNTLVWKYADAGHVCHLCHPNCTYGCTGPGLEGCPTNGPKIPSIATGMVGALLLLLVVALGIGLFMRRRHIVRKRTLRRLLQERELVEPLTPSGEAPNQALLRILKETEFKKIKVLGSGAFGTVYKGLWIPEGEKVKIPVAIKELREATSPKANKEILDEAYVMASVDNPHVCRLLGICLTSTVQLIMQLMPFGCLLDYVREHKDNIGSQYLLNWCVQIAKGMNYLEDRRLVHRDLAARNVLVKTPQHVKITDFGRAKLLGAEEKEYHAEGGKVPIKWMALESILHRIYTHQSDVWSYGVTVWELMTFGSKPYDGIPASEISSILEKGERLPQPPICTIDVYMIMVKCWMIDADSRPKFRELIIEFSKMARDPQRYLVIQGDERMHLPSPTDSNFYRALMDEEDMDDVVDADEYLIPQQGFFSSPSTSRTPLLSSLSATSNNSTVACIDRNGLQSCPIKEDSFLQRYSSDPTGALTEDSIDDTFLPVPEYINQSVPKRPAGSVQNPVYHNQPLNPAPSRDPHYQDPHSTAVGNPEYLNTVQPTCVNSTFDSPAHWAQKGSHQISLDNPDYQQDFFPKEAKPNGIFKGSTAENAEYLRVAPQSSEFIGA

[4] = target: Ribosomal protein S6 kinase beta-1 (Homo sapiens) (UniProt P23443); assay: Inhibition of S6K1 at 10 uM assessed as residual activity by [33P]ATP radioactive filter binding assay relative to control
Chain of Ribosomal protein S6 kinase beta-1 (Homo sapiens) (P23443 whole entry, looked up): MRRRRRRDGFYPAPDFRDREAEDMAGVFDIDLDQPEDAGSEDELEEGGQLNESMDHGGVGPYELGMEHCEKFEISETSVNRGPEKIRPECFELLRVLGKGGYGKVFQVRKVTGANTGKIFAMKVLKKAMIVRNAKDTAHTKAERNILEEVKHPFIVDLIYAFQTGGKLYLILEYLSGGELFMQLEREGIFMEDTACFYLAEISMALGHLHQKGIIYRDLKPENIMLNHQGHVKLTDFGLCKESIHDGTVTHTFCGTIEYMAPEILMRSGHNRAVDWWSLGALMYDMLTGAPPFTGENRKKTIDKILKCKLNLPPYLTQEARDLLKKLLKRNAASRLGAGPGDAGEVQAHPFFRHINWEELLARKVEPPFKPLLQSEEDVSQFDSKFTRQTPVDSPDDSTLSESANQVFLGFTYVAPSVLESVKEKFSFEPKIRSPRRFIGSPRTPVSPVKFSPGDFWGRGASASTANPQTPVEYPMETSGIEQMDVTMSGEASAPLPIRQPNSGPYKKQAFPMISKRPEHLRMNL

[5] = target: T1, Epidermal growth factor receptor; assay: Inhibition of wild type EGFR by HTRF assay
[6] = target: Mitogen-activated protein kinase 1 (Homo sapiens) (UniProt P28482); assay: Inhibition of ERK2 at 10 uM assessed as residual activity by [33P]ATP radioactive filter binding assay relative to control
Chain of Mitogen-activated protein kinase 1 (Homo sapiens) (P28482 whole entry): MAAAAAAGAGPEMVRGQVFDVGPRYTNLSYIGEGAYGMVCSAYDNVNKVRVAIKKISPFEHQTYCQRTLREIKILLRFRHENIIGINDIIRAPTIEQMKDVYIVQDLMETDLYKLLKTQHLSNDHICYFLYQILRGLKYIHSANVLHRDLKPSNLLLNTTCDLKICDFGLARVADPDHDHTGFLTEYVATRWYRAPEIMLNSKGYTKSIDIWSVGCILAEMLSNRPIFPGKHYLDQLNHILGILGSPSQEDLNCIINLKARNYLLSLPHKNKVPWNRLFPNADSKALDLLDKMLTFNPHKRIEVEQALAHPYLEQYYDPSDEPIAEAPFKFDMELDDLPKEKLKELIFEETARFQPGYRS

[7] = test system: PC-9; assay: Cytotoxicity against human PC9 cells expressing 746-750 sequence deleted EGFR assessed as cell viability at 0.001 to 10 uM after 96 hrs by cell titer-glo assay; assay type: functional, cell-based
[8] = target: Epidermal growth factor receptor (Homo sapiens, UniProt P00533, L858R); assay: Inhibition of EGFR Leu858Arg mutant by HTRF assay; assay type: protein assay
Chain of Epidermal growth factor receptor (Homo sapiens, UniProt P00533, L858R) (P00533 25-1210 L858R limits assumed): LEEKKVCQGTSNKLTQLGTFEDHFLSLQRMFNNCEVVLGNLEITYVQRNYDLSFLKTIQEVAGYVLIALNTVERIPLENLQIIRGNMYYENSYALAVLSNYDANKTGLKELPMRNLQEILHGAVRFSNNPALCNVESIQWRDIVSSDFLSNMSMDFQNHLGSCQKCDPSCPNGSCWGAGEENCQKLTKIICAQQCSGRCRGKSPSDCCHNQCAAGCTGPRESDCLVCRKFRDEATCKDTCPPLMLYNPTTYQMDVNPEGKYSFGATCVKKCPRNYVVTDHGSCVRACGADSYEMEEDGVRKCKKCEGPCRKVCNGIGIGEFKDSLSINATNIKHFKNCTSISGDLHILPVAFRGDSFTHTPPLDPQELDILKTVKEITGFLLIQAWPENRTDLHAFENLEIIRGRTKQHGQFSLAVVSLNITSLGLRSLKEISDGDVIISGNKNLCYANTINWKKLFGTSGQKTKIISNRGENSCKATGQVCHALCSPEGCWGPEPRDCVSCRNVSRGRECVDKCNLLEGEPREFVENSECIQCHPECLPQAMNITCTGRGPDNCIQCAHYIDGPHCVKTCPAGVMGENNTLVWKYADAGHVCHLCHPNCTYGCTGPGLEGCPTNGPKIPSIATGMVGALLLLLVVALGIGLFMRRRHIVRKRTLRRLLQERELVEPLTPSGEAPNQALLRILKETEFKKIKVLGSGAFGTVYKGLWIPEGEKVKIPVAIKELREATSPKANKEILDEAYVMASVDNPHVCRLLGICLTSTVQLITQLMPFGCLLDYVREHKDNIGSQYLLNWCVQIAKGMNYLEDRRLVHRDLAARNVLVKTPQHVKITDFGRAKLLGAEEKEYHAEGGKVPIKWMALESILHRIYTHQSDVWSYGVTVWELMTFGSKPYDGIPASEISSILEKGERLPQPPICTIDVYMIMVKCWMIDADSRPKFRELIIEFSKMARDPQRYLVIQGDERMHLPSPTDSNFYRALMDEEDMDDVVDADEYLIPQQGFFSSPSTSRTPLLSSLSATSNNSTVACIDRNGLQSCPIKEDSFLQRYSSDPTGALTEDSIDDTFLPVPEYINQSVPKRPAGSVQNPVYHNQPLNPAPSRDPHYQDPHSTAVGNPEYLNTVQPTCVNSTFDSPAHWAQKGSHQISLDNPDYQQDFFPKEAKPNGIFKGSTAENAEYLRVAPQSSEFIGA

Activity [1]: 79%
Activity [2]: Dose-dependent effect
IC50 [3]: 130 nM
Activity [4]: 87%
IC50 [5]: 1.7 nM
Activity [6]: 88%
IC50 [8]: 0.5 nM
SMILES: CN(C)CCCC(=O)Nc1ccc2nccc(Nc3cccc(Br)c3)c2c1
Activity [7]: Active
